Patent publication US20250313535A1, “ALPHA 4 BETA 7 INTEGRIN MODULATORS AND USES THEREOF” (DICE MOLECULES SV, INC., priority 2022, published 2025)

Experiments:
[1] = target: α4β1 integrin (Homo sapiens (Human), UniProt P05556+P13612); test: Integrin Adhesion Assay: Protocol 2 (VCAM-coated plate, Jurkat cells, CellTiter GLO readout); type: cell-based; conditions: determined by at least one of the assays described (protocol not specified)
Description: α4β7 and α4β1 inhibition was evaluated in vitro using at least one of the following procedures:
Integrin Adhesion Assay: Protocol 2
VCAM (R&D Systems, 0.1 ug) was diluted in 50 μL PBS, added to each well of an opaque ELISA plate (Thermo), and incubated overnight at 4° C. Coated plates were washed once with PBS and then blocked with 200 μL of assay buffer (10 mM HEPES, 150 mM NaCl, 1 mM MnCl2, 0.1 mM CaCl2), 1% BSA) for 1 hour at 37° C. and 5% CO2. After incubation, buffer was aspirated from the plates and 50 μL of fresh assay buffer was added. Compounds were added by compounds dispenser (Tecan) and DMSO concentration was normalized to 1% across each plate. 50 μL of Jurkat cells (2×10^6 per mL) were added to each well and the plates were incubated for 1 hour at 37° C. and 5% CO2. After incubation, plates were allowed to cool to RT for 10 minutes before being washed four times in assay buffer by an automated plate washer (BioTek). After washing, 100 μL of a 1:1 mixture of assay buffer and CellTiter GLO 2.0 reagent (Promega) were added to each well. Plates were mixed for 2 minutes at 1000 rpm and then allowed to incubate an additional 10 minutes before reading out luminescence on a Tecan Spark plate reader. Raw data was converted to percent inhibition based on DMSO only and control compound wells, and curves were analyzed by 4-parameter fit within Dotmatics software.

[2] = target: α4β7 integrin (Homo sapiens (Human), UniProt P13612+P26010); test: Integrin Adhesion Assay: Protocol 1 (MAdCAM-coated plate, RPMI-8866 cells, CellTiter GLO readout); type: cell-based; conditions: integrin adhesion assay; determined by at least one of the assays described (protocol not specified)
Chain of α4β7 integrin (P13612 34-1032): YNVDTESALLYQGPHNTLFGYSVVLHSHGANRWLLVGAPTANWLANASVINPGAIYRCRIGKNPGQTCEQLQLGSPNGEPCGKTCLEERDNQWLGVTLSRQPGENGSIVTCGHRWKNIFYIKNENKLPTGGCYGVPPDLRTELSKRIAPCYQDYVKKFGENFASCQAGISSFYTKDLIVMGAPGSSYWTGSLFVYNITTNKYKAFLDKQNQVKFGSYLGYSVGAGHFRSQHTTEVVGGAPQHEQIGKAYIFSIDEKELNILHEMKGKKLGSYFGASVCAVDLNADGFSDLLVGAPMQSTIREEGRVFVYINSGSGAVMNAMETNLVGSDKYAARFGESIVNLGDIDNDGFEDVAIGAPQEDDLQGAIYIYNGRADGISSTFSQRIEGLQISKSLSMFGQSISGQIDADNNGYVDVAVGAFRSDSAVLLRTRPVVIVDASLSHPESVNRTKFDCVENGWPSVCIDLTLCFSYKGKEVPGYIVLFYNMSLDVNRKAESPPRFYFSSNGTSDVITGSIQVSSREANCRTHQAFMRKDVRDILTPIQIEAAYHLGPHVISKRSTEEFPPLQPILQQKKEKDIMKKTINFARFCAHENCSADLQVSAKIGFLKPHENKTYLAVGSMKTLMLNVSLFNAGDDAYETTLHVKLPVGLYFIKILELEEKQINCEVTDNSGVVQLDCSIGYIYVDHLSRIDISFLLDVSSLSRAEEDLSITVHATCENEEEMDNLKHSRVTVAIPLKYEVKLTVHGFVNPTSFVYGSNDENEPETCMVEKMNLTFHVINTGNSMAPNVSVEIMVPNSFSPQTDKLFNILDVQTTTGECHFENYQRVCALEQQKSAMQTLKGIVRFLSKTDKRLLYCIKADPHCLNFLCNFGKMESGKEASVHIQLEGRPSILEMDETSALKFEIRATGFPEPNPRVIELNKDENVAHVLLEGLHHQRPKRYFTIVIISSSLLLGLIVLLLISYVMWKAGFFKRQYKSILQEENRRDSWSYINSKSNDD
Chain of α4β7 integrin (P26010 20-798): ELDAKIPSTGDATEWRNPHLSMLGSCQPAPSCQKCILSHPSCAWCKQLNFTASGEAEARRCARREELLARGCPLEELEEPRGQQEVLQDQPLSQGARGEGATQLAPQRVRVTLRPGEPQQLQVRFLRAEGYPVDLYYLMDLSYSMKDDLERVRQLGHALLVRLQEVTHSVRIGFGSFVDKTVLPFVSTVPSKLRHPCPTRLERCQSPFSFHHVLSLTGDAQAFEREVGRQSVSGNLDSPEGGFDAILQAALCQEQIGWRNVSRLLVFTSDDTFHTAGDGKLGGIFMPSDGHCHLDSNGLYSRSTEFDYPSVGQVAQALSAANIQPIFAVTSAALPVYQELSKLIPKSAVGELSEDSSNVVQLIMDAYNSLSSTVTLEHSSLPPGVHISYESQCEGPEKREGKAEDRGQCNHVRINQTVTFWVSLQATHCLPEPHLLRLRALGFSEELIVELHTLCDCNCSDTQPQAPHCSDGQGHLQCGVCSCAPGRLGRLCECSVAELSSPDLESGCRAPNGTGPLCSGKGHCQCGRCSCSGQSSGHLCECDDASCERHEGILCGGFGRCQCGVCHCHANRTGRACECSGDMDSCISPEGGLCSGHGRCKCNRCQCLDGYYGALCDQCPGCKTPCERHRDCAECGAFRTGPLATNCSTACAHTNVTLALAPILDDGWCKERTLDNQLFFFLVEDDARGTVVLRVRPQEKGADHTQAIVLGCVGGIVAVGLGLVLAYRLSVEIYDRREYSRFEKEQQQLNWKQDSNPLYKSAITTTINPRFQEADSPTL
Method in brief: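 RPMI-8866 cells (2×10^6 per mL) added with compounds (1% DMSO) to MAdCAM-coated wells blocked in HEPES/NaCl buffer with 1 mM MnCl2, 0.1 mM CaCl2, 1% BSA; 1 h at 37° C, 5% CO2. After four washes, bound cells read by CellTiter GLO luminescence; % inhibition vs DMSO and control wells, 4-parameter fit.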

Chain of α4β1 integrin (P13612 34-1032): as the sequence (P13612 34-1032) above
Chain of α4β1 integrin (P05556 21-798): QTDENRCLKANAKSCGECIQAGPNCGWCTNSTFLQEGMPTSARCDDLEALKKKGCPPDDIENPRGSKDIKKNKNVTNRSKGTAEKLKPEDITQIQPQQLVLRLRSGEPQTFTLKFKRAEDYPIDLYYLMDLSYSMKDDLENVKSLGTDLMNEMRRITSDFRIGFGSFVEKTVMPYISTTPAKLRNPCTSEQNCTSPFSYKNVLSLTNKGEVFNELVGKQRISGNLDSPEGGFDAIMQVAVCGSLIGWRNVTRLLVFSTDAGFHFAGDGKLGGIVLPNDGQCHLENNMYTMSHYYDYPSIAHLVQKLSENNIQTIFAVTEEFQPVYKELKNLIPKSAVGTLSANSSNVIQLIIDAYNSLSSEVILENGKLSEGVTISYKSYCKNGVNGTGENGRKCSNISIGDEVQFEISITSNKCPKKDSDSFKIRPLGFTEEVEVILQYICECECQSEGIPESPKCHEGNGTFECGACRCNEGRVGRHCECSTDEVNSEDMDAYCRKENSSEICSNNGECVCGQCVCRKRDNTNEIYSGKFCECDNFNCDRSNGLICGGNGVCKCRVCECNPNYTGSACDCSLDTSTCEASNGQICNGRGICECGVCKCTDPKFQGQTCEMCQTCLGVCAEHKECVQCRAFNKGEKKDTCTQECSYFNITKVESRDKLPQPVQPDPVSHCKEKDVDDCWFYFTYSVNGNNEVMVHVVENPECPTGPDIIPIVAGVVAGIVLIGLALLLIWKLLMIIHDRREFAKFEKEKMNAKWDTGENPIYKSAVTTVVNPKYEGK

Compound `CCN1CCC(C)(C(=O)N[C@@H](Cc2cccc3c(-n4c(=O)ccn(C)c4=O)cccc23)C(=O)O)CC1` [Compound 160] has an IC50 [1] greater than 1 µM and an IC50 [2] of 0.01 to 0.1 µM.

`CN1CCN(Cc2cc(N3CCOC[C@@H]3C(F)(F)F)cc(F)c2C(=O)N[C@@H](Cc2cccc3c(-c4c(C(F)(F)F)ccn(C)c4=O)nccc23)C(=O)O)CC1` [Compound 248] gave an IC50 [1] greater than 1 µM and an IC50 [2] of less than 0.01 µM.

For `Cn1ccc(=O)n(-c2cccc3c(C[C@H](NC(=O)c4ccc5cc(C(=O)N6CCC[C@@H]6c6ccccc6)ccc5c4)C(=O)O)cccc23)c1=O` [Compound 49], the IC50 [1] was greater than 1 µM and the IC50 [2] was greater than 1 µM.

For `Cn1ccc(C(F)(F)F)c(-c2nccc3c(C[C@H](NC(=O)c4c(F)cc(N(CC(F)(F)F)CC(F)(F)F)cc4CN4CCCC4)C(=O)O)cccc23)c1=O` [Compound 252], the IC50 [1] was greater than 1 µM and the IC50 [2] was less than 0.01 µM.

`Cn1ccc(=O)n(-c2cccc3c(C[C@H](NC(=O)c4c(F)cc(NS(=O)(=O)c5ccccc5)cc4F)C(=O)O)cccc23)c1=O` [Compound 9] showed an IC50 [1] greater than 1 µM and an IC50 [2] of less than 0.01 µM.

For `O=C(N[C@@H](Cc1cccc2c(-c3nccc4ccncc34)cccc12)C(=O)O)c1c(F)cc(CN2CCC2)cc1F` [Compound 37], the IC50 [1] was greater than 1 µM and the IC50 [2] was greater than 1 µM.

With `Cn1ccc(=O)n(-c2cccc3c(C[C@H](NC(=O)C4(C)CCN(CC(F)F)CC4)C(=O)O)cccc23)c1=O` [Compound 58] the IC50 [1] was greater than 1 µM and the IC50 [2] was 0.01 to 0.1 µM.

Work on `O=C(N[C@@H](Cc1cccc2c(-c3cccc4ccncc34)cccc12)C(=O)O)c1c(F)cc(NCC(F)(F)F)cc1CN1CCCC1` [Compound 150] yielded an IC50 [1] greater than 1 µM and an IC50 [2] of less than 0.01 µM.

`Cn1ccc(=O)n(-c2cccc3c(C[C@H](NC(=O)c4c(F)cc(NCC(F)(F)F)cc4F)C(=O)O)cccc23)c1=O` [Compound 114] gave an IC50 [1] greater than 1 µM and an IC50 [2] of less than 0.01 µM.

`O=C(N[C@@H](Cc1cccc2c(-c3cccc4ccncc34)cccc12)C(=O)O)c1c(F)cc(N2CCOC[C@@H]2C(F)(F)F)cc1F` [Compound 47] showed an IC50 [1] greater than 1 µM and an IC50 [2] of 0.01 to 0.1 µM.

`O=C(N[C@@H](Cc1cccc2c(-c3nccc4ccncc34)cccc12)C(=O)O)c1c(F)cc(N2CCOC[C@H]2CC(F)F)cc1CN1CCOCC1` [Compound 146] was tested, and the IC50 [1] was greater than 1 µM and the IC50 [2] was less than 0.01 µM.

`Cn1cc(CCN2CC(F)C2)c(=O)n(-c2cccc3c(C[C@H](NC(=O)c4c(F)cccc4F)C(=O)O)cccc23)c1=O` [Compound 118] showed an IC50 [1] greater than 1 µM and an IC50 [2] of 0.01 to 0.1 µM.

In the case of `Cn1ccc(=O)n(-c2cccc3c(C[C@H](NC(=O)[C@@H]4C[C@H]5CC[C@@H](C4)N5CC(F)(F)F)C(=O)O)cccc23)c1=O` [Compound 166], the IC50 [1] is reported as greater than 1 µM and the IC50 [2] is reported as greater than 1 µM.

`Cn1ccc(=O)n(-c2cccc3c(C[C@H](NCc4c(F)cccc4F)C(=O)O)cccc23)c1=O` [Compound 68] was tested, and the IC50 [1] was greater than 1 µM and the IC50 [2] was greater than 1 µM.

`Cn1ccc(=O)n(-c2cccc3c(C[C@H](NC(=O)c4c(F)cncc4Cl)C(=O)O)cccc23)c1=O` [Compound 110] gave an IC50 [1] of 0.1 to 1 µM and an IC50 [2] of 0.01 to 0.1 µM.

In the case of `CN([C@H](CCC(=O)O)C(=O)N[C@@H](Cc1cccc2c(-n3c(=O)ccn(C)c3=O)cccc12)C(=O)O)S(=O)(=O)c1ccccc1` [Compound 72], the IC50 [1] is reported as greater than 1 µM and the IC50 [2] is reported as 0.1 to 1 µM.

For `Cn1ccc(C(F)(F)F)c(-c2cccc3c(C[C@H](OCc4c(F)cccc4F)C(=O)O)cccc23)c1=O` [Compound 80], the IC50 [1] was greater than 1 µM and the IC50 [2] was greater than 1 µM.

`O=C(N[C@@H](Cc1cccc2c(-c3cccc4ccncc34)cccc12)C(=O)O)c1c(F)cc(N2CCOC[C@@H]2C(F)(F)F)cc1CN1CCOCC1` [Compound 149] gave an IC50 [1] greater than 1 µM and an IC50 [2] of 0.01 to 0.1 µM.

Compound `Cn1ccc(C(F)(F)F)c(-c2nccc3c(C[C@H](NC(=O)c4c(F)cc(N5CCOC[C@H]5C(F)(F)F)cc4F)C(=O)O)cccc23)c1=O` [Compound 218] has an IC50 [1] greater than 1 µM and an IC50 [2] of 0.01 to 0.1 µM.

Work on `CCOCc1cc(OC)c(-c2cccc3c(C[C@H](NC(=O)c4c(F)cc(N5CCOC[C@@H]5C(F)(F)F)cc4F)C(=O)O)cccc23)c(OC)c1` [Compound 171] yielded an IC50 [1] of 0.1 to 1 µM and an IC50 [2] of less than 0.01 µM.

`Cn1ccc(=O)n(-c2cccc3c(C[C@H](NC(=O)c4c(F)cc(NCC(F)(F)F)cc4CN4CCOCC4)C(=O)O)cccc23)c1=O` [Compound 19] was tested, and the IC50 [1] was 0.1 to 1 µM and the IC50 [2] was less than 0.01 µM.

For `Cc1nccc(F)c1C(=O)N[C@@H](Cc1cccc2c(-n3c(=O)ccn(C)c3=O)cccc12)C(=O)O` [Compound 17], the IC50 [1] was greater than 1 µM and the IC50 [2] was 0.01 to 0.1 µM.

`Cn1ccc(C(F)(F)F)c(-c2nccc3c(C[C@H](NC(=O)c4c(F)cc(N5CCOC[C@@H]5C(F)(F)F)cc4CN4CCCC4)C(=O)O)cccc23)c1=O` [Compound 253] was tested, and the IC50 [1] was greater than 1 µM and the IC50 [2] was less than 0.01 µM.

With `O=C(N[C@@H](Cc1cccc2c(-n3c(=O)ccc4cnccc43)cccc12)C(=O)O)c1c(F)cccc1F` [Compound 2] the IC50 [1] was greater than 1 µM and the IC50 [2] was less than 0.01 µM.

`Cn1ccc(C(F)(F)F)c(-c2nccc3c(C[C@H](NC(=O)c4c(F)cc(N5CCOC[C@@H]5C(F)(F)F)cc4CN4CCOCC4)C(=O)O)cccc23)c1=O` [Compound 245] showed an IC50 [1] greater than 1 µM and an IC50 [2] of less than 0.01 µM.

For `Cn1ccc(=O)n(-c2cccc3c(C[C@H](NC(=O)c4cc(C(=O)N5CCc6ccccc6C5)n(-c5ccccc5)n4)C(=O)O)cccc23)c1=O` [Compound 44], the IC50 [1] was greater than 1 µM and the IC50 [2] was greater than 1 µM.

For `Cn1ccc(=O)n(-c2cccc3c(C[C@H](NC(=O)c4c(F)ccc(NCC(F)(F)F)c4F)C(=O)O)cccc23)c1=O` [Compound 120], the IC50 [1] was greater than 1 µM and the IC50 [2] was 0.01 to 0.1 µM.

For `Cn1ccc(=O)n(-c2cccc3c(C[C@H](NC(=O)C4(Cc5ccc(F)cc5)CCC(F)(F)CC4)C(=O)O)cccc23)c1=O` [Compound 64], the IC50 [1] was greater than 1 µM and the IC50 [2] was greater than 1 µM.

`Cn1c(C(F)(F)F)ccc(-c2cccc3c(C[C@H](NC(=O)c4c(F)cc(N5CCOC[C@@H]5C(F)(F)F)cc4F)C(=O)O)cccc23)c1=O` [Compound 67] showed an IC50 [1] greater than 1 µM and an IC50 [2] of less than 0.01 µM.

`Cn1cc(CCO)c(=O)n(-c2cccc3c(C[C@H](NC(=O)c4c(F)cccc4F)C(=O)O)cccc23)c1=O` [Compound 137] gave an IC50 [1] greater than 1 µM and an IC50 [2] of 0.01 to 0.1 µM.

With `Cn1ccc(=O)n(-c2cccc3c(C[C@H](NCc4ccc(N5CCOCC5)cc4)C(=O)O)cccc23)c1=O` [Compound 70] the IC50 [1] was greater than 1 µM and the IC50 [2] was greater than 1 µM.

Compound `Cn1ccc(C(F)(F)F)c(-c2nccc3c(C[C@H](NC(=O)c4c(F)cc(N5CCOC[C@@H]5C(F)(F)F)cc4CN4CCC(F)(F)CC4)C(=O)O)cccc23)c1=O` [Compound 226] has an IC50 [1] greater than 1 µM and an IC50 [2] of less than 0.01 µM.

`CC(C)Oc1cc(F)c(C(=O)N[C@@H](Cc2cccc3c(-n4c(=O)ccn(C)c4=O)cccc23)C(=O)O)c(F)c1` [Compound 30] was tested, and the IC50 [1] was greater than 1 µM and the IC50 [2] was 0.01 to 0.1 µM.

Compound `Cn1ccc(=O)n(-c2cccc3c(C[C@H](NC(=O)C4(C)CCN(C(=O)C(F)F)CC4)C(=O)O)cccc23)c1=O` [Compound 55] has an IC50 [1] greater than 1 µM and an IC50 [2] of 0.1 to 1 µM.

Compound `CC(C)C1(C(=O)N[C@@H](Cc2cccc3c(-n4c(=O)ccn(C)c4=O)cccc23)C(=O)O)CCN(CC(F)(F)F)CC1` [Compound 153] has an IC50 [1] of 0.1 to 1 µM and an IC50 [2] of 0.01 to 0.1 µM.

Work on `Cn1ccc(=O)n(-c2cccc3c(C[C@H](NC(=O)c4c(F)cc(C(F)(F)F)cc4F)C(=O)O)cccc23)c1=O` [Compound 26] yielded an IC50 [1] greater than 1 µM and an IC50 [2] of 0.01 to 0.1 µM.

With `Cn1ccc(=O)n(-c2cccc3c(C[C@H](NC(=O)c4ccc(C(=O)NCCCCN)nc4)C(=O)O)cccc23)c1=O` [Compound 24] the IC50 [1] was greater than 1 µM and the IC50 [2] was greater than 1 µM.

In the case of `Cn1ccc(=O)n(-c2cccc3c(C[C@H](NC(=O)c4c(F)cc(N5CCOC[C@@H]5C(F)(F)F)cc4F)C(=O)O)cccc23)c1=O` [Compound 108], the IC50 [1] is reported as 0.1 to 1 µM and the IC50 [2] is reported as less than 0.01 µM.

Work on `Cn1c(=O)c2ccccc2n(-c2cccc3c(C[C@H](NC(=O)c4c(F)cccc4F)C(=O)O)cccc23)c1=O` [Compound 3] yielded an IC50 [1] greater than 1 µM and an IC50 [2] of 0.01 to 0.1 µM.

`COc1cc(F)c(C(=O)N[C@@H](Cc2cccc3c(-n4c(=O)ccn(C)c4=O)cccc23)C(=O)O)c(F)c1` [Compound 28] was tested, and the IC50 [1] was greater than 1 µM and the IC50 [2] was 0.01 to 0.1 µM.

In the case of `Cn1ccc(=O)n(-c2cccc3c(C[C@H](NC(=O)c4c(F)cccc4CN4CCC4)C(=O)O)cccc23)c1=O` [Compound 7], the IC50 [1] is reported as greater than 1 µM and the IC50 [2] is reported as 0.01 to 0.1 µM.

Work on `Cn1ccc(=O)n(-c2cccc3c(C[C@H](NC(=O)C4C(C)(C)CN(CC(F)(F)F)CC4(C)C)C(=O)O)cccc23)c1=O` [Compound 156] yielded an IC50 [1] greater than 1 µM and an IC50 [2] of 0.1 to 1 µM.

`O=C(N[C@@H](Cc1cccc2c(-c3cccc4ccncc34)cccc12)C(=O)O)c1c(F)cc(N2CCOC[C@@H]2C(F)(F)F)cc1CN1CCCC1` [Compound 148] showed an IC50 [1] greater than 1 µM and an IC50 [2] of less than 0.01 µM.

Work on `Cc1ccccc1-c1cccc(C(F)(F)C(=O)N[C@@H](Cc2cccc3c(-n4c(=O)ccn(C)c4=O)cccc23)C(=O)O)c1` [Compound 179] yielded an IC50 [1] greater than 1 µM and an IC50 [2] greater than 1 µM.

In the case of `CCC1(C(=O)N[C@@H](Cc2cccc3c(-n4c(=O)ccn(C)c4=O)cccc23)C(=O)O)CCC(F)(F)CC1` [Compound 66], the IC50 [1] is reported as greater than 1 µM and the IC50 [2] is reported as 0.1 to 1 µM.
